Data from ChEMBL document CHEMBL1201862, “PubChem BioAssay data set” (2004).
Several values for one entry are separate records, joined by “and”; a condition that tells them apart may be missing. Equal entries are not always repeated.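 Step 1: Grow cells in 96-well plates. Step 2: Expose to compound for 48 hours at 5 concentrations. Step 3: Interpolate endpoints linearly; if unreached, use highest concentration. GI50 marks 50% less growth.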 Activity calls are given as the source filed them. Rule as the data show it: active = GI50 up to about 1.1 µM and inactive = higher.

Tests used:
Assay in all cases: NCI-60 cell line screen, 48 h
NCI-H460 = tested on: NCI-H460
OVCAR-5 = tested on: OVCAR-5
DMS-273 = tested on: DMS-273
OVCAR-4 = tested on: OVCAR-4
SW-620 = tested on: SW-620
MOLT-4 = tested on: MOLT-4
OVCAR-3 = tested on: OVCAR-3
M14 = tested on: M14
HT-29 = tested on: HT-29
HL-60 = tested on: HL-60
RXF 631 = tested on: RXF 631
SK-MEL-5 = tested on: SK-MEL-5
TK-10 = tested on: TK-10
IGROV-1 = tested on: IGROV-1
SNB-19 = tested on: SNB-19
DMS-114 = tested on: DMS-114
Malme-3M = tested on: Malme-3M
M19-MEL = tested on: M19-MEL
SNB-75 = tested on: SNB-75
CCRF-CEM = tested on: CCRF-CEM
EKVX = tested on: EKVX
HCT-15 = tested on: HCT-15
RXF 393 = tested on: RXF 393
LXFL 529 = tested on: LXFL 529
NCI-H226 = tested on: NCI-H226
KM-20L2 = tested on: KM-20L2
786-0 = tested on: 786-0
COLO 205 = tested on: COLO 205
DLD-1 = tested on: DLD-1
HCC 2998 = tested on: HCC 2998
A549 = tested on: A549
HOP-92 = tested on: HOP-92
SK-OV-3 = tested on: SK-OV-3
SK-MEL-2 = tested on: SK-MEL-2
UACC-257 = tested on: UACC-257
A498 = tested on: A498
HOP-18 = tested on: HOP-18
CAKI-1 = tested on: CAKI-1
SF-295 = tested on: SF-295
K562 = tested on: K562
NCI-H522 = tested on: NCI-H522
SF-539 = tested on: SF-539
UO-31 = tested on: UO-31
LOX IMVI = tested on: LOX IMVI
SF-268 = tested on: SF-268
KM12 = tested on: KM12
SK-MEL-28 = tested on: SK-MEL-28
NCI-H23 = tested on: NCI-H23
UACC-62 = tested on: UACC-62
ACHN = tested on: ACHN
HCT-116 = tested on: HCT-116
HOP-62 = tested on: HOP-62
SN12C = tested on: SN12C
OVCAR-8 = tested on: OVCAR-8
RPMI-8226 = tested on: RPMI-8226
U-251 = tested on: U-251

Structure (SMILES): COC(=O)C(=O)C(C(=O)C(=O)Nc1cccc(C(C)=O)c1)c1nc2ccccc2nc1O (stereo unspecified)
- GI50 (NCI-H460): > 100 µM (inactive)
- GI50 (OVCAR-5): > 100 µM (inactive)
- GI50 (DMS-273): > 100 µM (inactive)
- GI50 (OVCAR-4): > 100 µM (inactive)
- GI50 (SW-620): > 100 µM (inactive)
- GI50 (MOLT-4): > 100 µM (inactive)
- GI50 (OVCAR-3): > 100 µM (inactive)
- GI50 (M14): > 100 µM (inactive)
- GI50 (HT-29): > 100 µM (inactive)
- GI50 (HL-60): > 100 µM (inactive)
- GI50 (RXF 631): > 100 µM (inactive)
- GI50 (SK-MEL-5): > 100 µM (inactive)
- GI50 (TK-10): > 100 µM (inactive)
- GI50 (IGROV-1): > 100 µM (inactive)
- GI50 (SNB-19): > 100 µM (inactive)
- GI50 (DMS-114): > 100 µM (inactive)
- GI50 (Malme-3M): > 100 µM (inactive)
- GI50 (M19-MEL): > 100 µM (inactive)
- GI50 (SNB-75): > 100 µM (inactive)
- GI50 (CCRF-CEM): > 100 µM (inactive)
- GI50 (EKVX): 48.3 µM (inactive)
- GI50 (HCT-15): > 100 µM
- GI50 (RXF 393): > 100 µM (inactive)
- GI50 (LXFL 529): > 100 µM (inactive)
- GI50 (NCI-H226): > 100 µM (inactive)
- GI50 (KM-20L2): > 100 µM (inactive)
- GI50 (786-0): > 100 µM (inactive)
- GI50 (COLO 205): > 100 µM (inactive)
- GI50 (DLD-1): > 100 µM (inactive)
- GI50 (HCC 2998): > 100 µM (inactive)
- GI50 (A549): > 100 µM (inactive)
- GI50 (HOP-92): > 100 µM (inactive)
- GI50 (SK-OV-3): > 100 µM (inactive)
- GI50 (SK-MEL-2): > 100 µM (inactive)
- GI50 (UACC-257): > 100 µM (inactive)
- GI50 (A498): > 100 µM (inactive)
- GI50 (HOP-18): > 100 µM (inactive)
- GI50 (CAKI-1): > 100 µM (inactive)
- GI50 (SF-295): > 100 µM (inactive)
- GI50 (K562): > 100 µM (inactive)
- GI50 (NCI-H522): > 100 µM (inactive)
- GI50 (SF-539): > 100 µM (inactive)
- GI50 (UO-31): > 100 µM (inactive)
- GI50 (LOX IMVI): > 100 µM (inactive)
- GI50 (SF-268): > 100 µM (inactive)
- GI50 (KM12): > 100 µM (inactive)
- GI50 (SK-MEL-28): > 100 µM (inactive)
- GI50 (NCI-H23): > 100 µM (inactive)
- GI50 (UACC-62): > 100 µM (inactive)
- GI50 (ACHN): > 100 µM (inactive)

Structure (SMILES): CC(=O)OCC1OC(n2c(=S)n(-c3ccccc3)c(=S)c3ccccc32)C(OC(C)=O)C(OC(C)=O)C1OC(C)=O (stereo unspecified)
- GI50 (HCT-116): > 89.1 µM (inactive) and 57 µM (inactive)
- GI50 (RXF 631): > 57.3 µM (inactive) and 71.4 µM (inactive)
- GI50 (TK-10): 16.9 µM (inactive)
- GI50 (786-0): > 80.9 µM (inactive) and 62.8 µM (inactive)
- GI50 (HOP-92): > 37.7 µM (inactive) and 41.1 µM (inactive)
- GI50 (HOP-18): 6.87 µM (inactive)
- GI50 (SF-539): 43.9 µM (inactive) and 48.5 µM (inactive)

Structure (SMILES): CC(=O)OCC1OC(n2c(=S)n(-c3ccccc3)c(=O)c3cc(Br)ccc32)C(OC(C)=O)C(OC(C)=O)C1OC(C)=O (stereo unspecified)
- GI50 (NCI-H460): > 100 µM (inactive)
- GI50 (OVCAR-5): > 100 µM (inactive)
- GI50 (HOP-62): > 100 µM (inactive)
- GI50 (DMS-273): > 100 µM (inactive)
- GI50 (SW-620): > 100 µM (inactive)
- GI50 (MOLT-4): > 100 µM (inactive) and 94.6 µM (inactive)
- GI50 (OVCAR-3): > 100 µM (inactive)
- GI50 (M14): > 100 µM (inactive)
- GI50 (HT-29): > 100 µM (inactive)
- GI50 (HL-60): > 100 µM (inactive)
- GI50 (RXF 631): > 100 µM (inactive)
- GI50 (SK-MEL-5): > 100 µM (inactive)
- GI50 (IGROV-1): > 100 µM (inactive)
- GI50 (SNB-19): > 100 µM (inactive) and 70.5 µM (inactive)
- GI50 (DMS-114): > 100 µM (inactive)
- GI50 (M19-MEL): > 100 µM (inactive)
- GI50 (CCRF-CEM): > 100 µM (inactive)
- GI50 (EKVX): > 100 µM (inactive)
- GI50 (HCT-15): > 100 µM
- GI50 (LXFL 529): > 100 µM (inactive)
- GI50 (NCI-H226): > 100 µM (inactive)
- GI50 (SN12C): > 100 µM (inactive)
- GI50 (KM-20L2): > 100 µM (inactive)
- GI50 (786-0): > 100 µM (inactive)
- GI50 (COLO 205): > 100 µM (inactive)
- GI50 (DLD-1): > 100 µM (inactive)
- GI50 (OVCAR-8): > 100 µM (inactive)
- GI50 (HCC 2998): > 100 µM (inactive)
- GI50 (A549): > 100 µM (inactive)
- GI50 (RPMI-8226): > 100 µM (inactive)
- GI50 (SK-OV-3): > 100 µM (inactive)
- GI50 (UACC-257): > 100 µM (inactive)
- GI50 (U-251): > 100 µM (inactive)
- GI50 (A498): > 100 µM (inactive)
- GI50 (CAKI-1): > 100 µM (inactive)
- GI50 (K562): > 100 µM (inactive)
- GI50 (NCI-H522): > 100 µM (inactive)
- GI50 (SF-539): > 100 µM (inactive)
- GI50 (UO-31): > 100 µM (inactive)
- GI50 (LOX IMVI): > 100 µM (inactive)
- GI50 (SF-268): > 100 µM (inactive)
- GI50 (KM12): > 100 µM (inactive)
- GI50 (SK-MEL-28): > 100 µM (inactive)
- GI50 (NCI-H23): > 100 µM (inactive)
- GI50 (UACC-62): > 100 µM (inactive)
- GI50 (ACHN): > 100 µM (inactive)

Structure (SMILES): O=C1C2C(C(=O)N1c1ccccc1)C1(c3ccccc3)OC2(c2ccccc2)c2ccccc21 (stereo unspecified)
- GI50 (NCI-H460): > 100 µM (inactive)
- GI50 (OVCAR-5): 4.14 µM (inactive)
- GI50 (HOP-62): > 100 µM (inactive)
- GI50 (DMS-273): > 100 µM (inactive)
- GI50 (OVCAR-4): > 100 µM (inactive)
- GI50 (SW-620): > 100 µM (inactive)
- GI50 (MOLT-4): > 100 µM (inactive)
- GI50 (OVCAR-3): > 100 µM (inactive)
- GI50 (M14): > 100 µM (inactive)
- GI50 (HT-29): > 100 µM (inactive)
- GI50 (HL-60): > 100 µM (inactive)
- GI50 (RXF 631): > 100 µM (inactive)
- GI50 (SK-MEL-5): 2.78 µM (inactive)
- GI50 (TK-10): > 100 µM (inactive)
- GI50 (IGROV-1): > 100 µM (inactive)
- GI50 (SNB-19): > 100 µM (inactive)
- GI50 (DMS-114): > 100 µM (inactive)
- GI50 (Malme-3M): > 100 µM (inactive)
- GI50 (M19-MEL): > 100 µM (inactive)
- GI50 (SNB-75): 12.8 µM (inactive)
- GI50 (CCRF-CEM): > 100 µM (inactive)
- GI50 (EKVX): > 100 µM (inactive)
- GI50 (HCT-15): > 100 µM
- GI50 (RXF 393): > 100 µM (inactive)
- GI50 (LXFL 529): > 100 µM (inactive)
- GI50 (SN12C): > 100 µM (inactive)
- GI50 (KM-20L2): > 100 µM (inactive)
- GI50 (786-0): > 100 µM (inactive)
- GI50 (COLO 205): > 100 µM (inactive)
- GI50 (DLD-1): > 100 µM (inactive)
- GI50 (OVCAR-8): > 100 µM (inactive)
- GI50 (HCC 2998): > 100 µM (inactive)
- GI50 (A549): > 100 µM (inactive)
- GI50 (RPMI-8226): > 100 µM (inactive)
- GI50 (HOP-92): 1.93 µM (inactive)
- GI50 (SK-OV-3): > 100 µM (inactive)
- GI50 (SK-MEL-2): > 100 µM (inactive)
- GI50 (UACC-257): > 100 µM (inactive)
- GI50 (U-251): > 100 µM (inactive)
- GI50 (HOP-18): > 100 µM (inactive)
- GI50 (CAKI-1): > 100 µM (inactive)
- GI50 (SF-295): > 100 µM (inactive)
- GI50 (K562): > 100 µM (inactive)
- GI50 (NCI-H522): 30.6 µM (inactive)
- GI50 (SF-539): > 100 µM (inactive)
- GI50 (UO-31): > 100 µM (inactive)
- GI50 (LOX IMVI): > 100 µM (inactive)
- GI50 (SF-268): > 100 µM (inactive)
- GI50 (KM12): > 100 µM (inactive)
- GI50 (SK-MEL-28): > 100 µM (inactive)
- GI50 (NCI-H23): > 100 µM (inactive)
- GI50 (UACC-62): > 100 µM (inactive)
- GI50 (ACHN): > 100 µM (inactive)
